# How the values were obtained:
# KCNQ3*-W265L = KCNQ3*-W265L (Homo sapiens, UniProt O43525, A315T/W265L); experiment: TEVC of mutant KCNQ3*-W265L in oocytes; assay type: cell-based
# Description: (§1) We generated cRNA transcripts encoding human KCNQ1, 2, 3, and 5 (wild-type and mutant) by in vitro transcription using the mMessage mMachine kit (Thermo Fisher Scientific, Waltham, MA, USA) according to manufacturer’s instructions, after vector linearization, from cDNA sub-cloned into expression vectors (pTLNx and pXOOM) incorporating Xenopus laevis β-globin 5’ and 3’ UTRs flanking the coding region to enhance translation and cRNA stability. Mutant KCNQ cDNAs were generated by Genscript (Piscataway, NJ, USA) and cRNAs made as above. We injected defolliculated stage V and VI Xenopus laevis oocytes (Xenoocyte, Dexter, MI, USA) with KCNQ cRNAs (2–10 ng) and incubated the oocytes at 16 °C in ND96 oocyte storage solution containing penicillin and streptomycin, with daily washing, for 2–4 days prior to two-electrode voltage-clamp (TEVC) recording.
# (§2) We performed TEVC at room temperature using an OC-725C amplifier (Warner Instruments, Hamden, CT, USA) and pClamp10 software (Molecular Devices, Sunnyvale, CA, USA) 2–4 days after cRNA injection. We placed oocytes in a small-volume oocyte bath (Warner) and viewed them with a dissection microscope for cellular electrophysiology. We sourced chemicals from Sigma-Aldrich (St. Louis, MO, USA) and Combi-Blocks (San Diego, CA, USA). We studied effects of Salvia rosmarinus extracts and of compounds, solubilized directly in bath solution (in mM): 96 NaCl, 4 KCl, 1 MgCl2, 1 CaCl2, 10 HEPES (pH 7.6). We introduced extracts or compounds into the oocyte recording bath by gravity perfusion at a constant flow of 1 ml per minute for 3 min prior to recording. Pipettes were of 1-2 MΩ resistance when filled with 3 M KCl. […] We analyzed data using Clampfit (Molecular Devices) and Graphpad Prism software (GraphPad, San Diego, CA, USA), stating values as mean ± SEM. We plotted raw or normalized tail currents versus prepulse voltage and fitted with a single Boltzmann function:1 g=(A1−A2)/1+exp[V1/2−V/Vs]y+A2 where g is the normalized tail conductance, A1 is the initial value at -∞, A2 is the final value at +∞, V1/2 is the half-maximal voltage of activation and Vs the slope factor. We fitted activation and deactivation kinetics with single exponential functions.
# KCNQ3* (KCNQ3-A315T) = KCNQ3* (KCNQ3-A315T) (Homo sapiens, UniProt O43525, A315T); experiment: TEVC of KCNQ3* homomers expressed in Xenopus laevis oocytes; assay type: cell-based
# KCNQ3/5 = target: T1, KCNQ3/5 (Homo sapiens, UniProt O43525+Q9NR82); experiment: TEVC of KCNQ3/5 heteromers expressed in Xenopus laevis oocytes; assay type: cell-based
# T1 construct: expressed in transfected cells; host or cells: Xenopus laevis oocytes co-injected with cRNAs
# Description: as §1, §2
# mice = conditions: acute toxicity; cited from earlier work
# KCNQ2 = KCNQ2 (Homo sapiens, UniProt O43526); experiment: TEVC of KCNQ2 homomers expressed in Xenopus laevis oocytes; assay type: cell-based
# Description: as §1, §2
# KCNQ3*-P211A = KCNQ3*-P211A (Homo sapiens, UniProt O43525, A315T/P211A); experiment: TEVC of mutant KCNQ3*-P211A in oocytes; assay type: cell-based
# Description: as §1
# (§3) We performed TEVC at room temperature using an OC-725C amplifier (Warner Instruments, Hamden, CT, USA) and pClamp10 software (Molecular Devices, Sunnyvale, CA, USA) 2–4 days after cRNA injection. We placed oocytes in a small-volume oocyte bath (Warner) and viewed them with a dissection microscope for cellular electrophysiology. We sourced chemicals from Sigma-Aldrich (St. Louis, MO, USA) and Combi-Blocks (San Diego, CA, USA). We studied effects of Salvia rosmarinus extracts and of compounds, solubilized directly in bath solution (in mM): 96 NaCl, 4 KCl, 1 MgCl2, 1 CaCl2, 10 HEPES (pH 7.6). We introduced extracts or compounds into the oocyte recording bath by gravity perfusion at a constant flow of 1 ml per minute for 3 min prior to recording. Pipettes were of 1-2 MΩ resistance when filled with 3 M KCl. We recorded currents in response to voltage pulses between −120 mV and +40 mV at 10 mV intervals from a holding potential of −80 mV, to yield current-voltage relationships and examine activation kinetics. We analyzed data using Clampfit (Molecular Devices) and Graphpad Prism software (GraphPad, San Diego, CA, USA), stating values as mean ± SEM. We plotted raw or normalized tail currents versus prepulse voltage and fitted with a single Boltzmann function:1 g=(A1−A2)/1+exp[V1/2−V/Vs]y+A2 where g is the normalized tail conductance, A1 is the initial value at -∞, A2 is the final value at +∞, V1/2 is the half-maximal voltage of activation and Vs the slope factor. We fitted activation and deactivation kinetics with single exponential functions.
# KCNQ2/5 = target: T2, KCNQ2/5 (Homo sapiens, UniProt O43526+Q9NR82); experiment: TEVC of KCNQ2/5 heteromers expressed in Xenopus laevis oocytes; assay type: cell-based
# T2 construct: expressed in transfected cells; host or cells: Xenopus laevis oocytes co-injected with cRNAs
# Description: as §1, §3
# [1] = 5 µM, post 3 hrs. incubation 30 µM Wortmannin
# Chain of KCNQ3* (KCNQ3-A315T) (O43525 whole entry A315T): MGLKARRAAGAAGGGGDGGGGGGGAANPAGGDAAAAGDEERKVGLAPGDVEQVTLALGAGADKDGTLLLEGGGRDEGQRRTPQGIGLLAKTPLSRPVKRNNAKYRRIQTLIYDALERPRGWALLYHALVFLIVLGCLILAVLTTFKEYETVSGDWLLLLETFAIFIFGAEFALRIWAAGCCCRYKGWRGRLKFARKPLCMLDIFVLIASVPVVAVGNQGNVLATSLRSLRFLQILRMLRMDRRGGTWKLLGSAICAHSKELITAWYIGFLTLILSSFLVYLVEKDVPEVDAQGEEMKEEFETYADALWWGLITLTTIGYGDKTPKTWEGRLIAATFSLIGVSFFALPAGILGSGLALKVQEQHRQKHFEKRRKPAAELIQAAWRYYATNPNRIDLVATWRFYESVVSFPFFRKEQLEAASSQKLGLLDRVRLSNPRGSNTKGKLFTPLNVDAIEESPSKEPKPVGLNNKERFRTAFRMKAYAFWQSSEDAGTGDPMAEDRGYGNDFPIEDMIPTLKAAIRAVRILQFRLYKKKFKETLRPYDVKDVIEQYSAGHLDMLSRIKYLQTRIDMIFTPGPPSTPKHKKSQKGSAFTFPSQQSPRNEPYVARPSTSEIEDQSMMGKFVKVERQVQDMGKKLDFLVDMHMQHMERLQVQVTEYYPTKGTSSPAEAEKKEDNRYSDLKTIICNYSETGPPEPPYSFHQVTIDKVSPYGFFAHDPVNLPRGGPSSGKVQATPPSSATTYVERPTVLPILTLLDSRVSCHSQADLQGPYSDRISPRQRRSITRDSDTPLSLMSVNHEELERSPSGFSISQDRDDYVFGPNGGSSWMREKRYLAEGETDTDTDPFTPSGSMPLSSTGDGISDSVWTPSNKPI
smiles,measurement,setting,value
"CC(C)c1cc2c(c(O)c1O)[C@@]1(C(=O)O)CCCC(C)(C)[C@@H]1CC2 [Carnosic acid, carnosic acid]",V0.5 Normalized tail current,KCNQ3*-W265L; 0.1 µM,-75.60 ± 1.02 mV
same,V0.5 Normalized tail current,KCNQ3*-W265L; 1 µM,-86.19 ± 1.09 mV
same,V0.5 Normalized tail current,KCNQ3*-W265L; 3 µM,-96.66 ± 1.64 mV
same,V0.5 Normalized tail current,KCNQ3*-W265L; 10 µM,-105.3 ± 2.56 mV
same,V0.5 Normalized tail current,KCNQ3*-W265L; 100 µM,-146.0 ± 1.92 mV
same,EC50,KCNQ3*-W265L; EC50 EM,0.14 ± 0.03 µM
same,EC50,KCNQ3*-W265L; EC50 V0.5 Activation,2.11 ± 0.09 µM
same,sensitivity in terms of potency versus KCNQ3*,KCNQ3*-W265L; dose-response,approximately fivefold
same,V0.5 Normalized tail current,KCNQ3* (KCNQ3-A315T); 0.1 µM,-55.21 ± 0.45 mV
same,V0.5 Normalized tail current,KCNQ3* (KCNQ3-A315T); 1 µM,-59.60 ± 0.47 mV
same,V0.5 Normalized tail current,KCNQ3* (KCNQ3-A315T); 3 µM,-63.92 ± 0.74 mV
same,slowing of deactivation rate,"KCNQ3* (KCNQ3-A315T); 3 µM, at −120 mV",> fourfold
same,change of activation rate,"KCNQ3* (KCNQ3-A315T); 3 µM, voltage-independent",doubled
same,Slope,KCNQ3* (KCNQ3-A315T); 5 µM,7.61 ± 0.94 mV
same,V0.5 Normalized tail current,KCNQ3* (KCNQ3-A315T); 5 µM,-63.93 ± 1.08 mV
same,Slope,KCNQ3* (KCNQ3-A315T); [1],6.70 ± 0.56 mV
same,V0.5 Normalized tail current,KCNQ3* (KCNQ3-A315T); [1],-46.82 ± 0.64 mV
same,time to saturation of current potentiation upon wash-in,"KCNQ3* (KCNQ3-A315T); 5 µM, −60 mV",around 150 s
same,V0.5 Normalized tail current,KCNQ3* (KCNQ3-A315T); 10 µM,-73.28 ± 1.41 mV
same,V0.5 Normalized tail current,KCNQ3* (KCNQ3-A315T); 30 µM,-92.58 ± 2.21 mV
same,Slope,KCNQ3* (KCNQ3-A315T); 100 µM,9.91 ± 0.62 mV
same,V0.5 non-normalized tail current,KCNQ3* (KCNQ3-A315T); 100 µM,-111.1 ± 5.75 mV
same,effect on EM of unclamped oocytes,KCNQ3* (KCNQ3-A315T); 100 µM (hesperidin 30 µM),hyperpolarized
same,EC50,"KCNQ3* (KCNQ3-A315T); EC50 EM, EM of unclamped oocytes",1.19 ± 0.19 µM
same,EC50,"KCNQ3* (KCNQ3-A315T); EC50 Fold change -60 mV, current increase at −60 mV",5.43 ± 0.37 µM
same,EC50,"KCNQ3* (KCNQ3-A315T); EC50 V0.5 Activation, ΔV0.5act",18 ± 0.72 µM
same,V0.5 Normalized tail current,KCNQ3/5; 0.1 µM,-41.88 ± 0.50 mV
same,V0.5 Normalized tail current,KCNQ3/5; 1 µM,-47.59 ± 0.51 mV
same,V0.5 Normalized tail current,KCNQ3/5; 3 µM,-52.07 ± 0.47 mV
same,V0.5 Normalized tail current,KCNQ3/5; 10 µM,-56.02 ± 0.57 mV
same,V0.5 Normalized tail current,KCNQ3/5; 30 µM,-62.10 ± 0.87 mV
same,V0.5 Normalized tail current,KCNQ3/5; 100 µM,-68.83 ± 1.11 mV
same,channel opening,KCNQ3/5; 100 µM,powerful opener
same,EC50,KCNQ3/5; EC50 EM,4.21 ± 0.16 µM
same,EC50,KCNQ3/5; EC50 V0.5 Activation,4.53 ± 0.11 µM
same,oral LD50,mice,7100 mg/kg
same,V0.5 Normalized tail current,KCNQ2; 0.1 µM,-41.03 ± 1.43 mV
same,V0.5 Normalized tail current,KCNQ2; 1 µM,-44.14 ± 0.95 mV
same,V0.5 Normalized tail current,KCNQ2; 3 µM,-46.74 ± 0.85 mV
same,V0.5 Normalized tail current,KCNQ2; 10 µM,-45.67 ± 0.73 mV
same,V0.5 Normalized tail current,KCNQ2; 30 µM,-45.20 ± 0.88 mV
same,V0.5 Normalized tail current,KCNQ2; 100 µM,-43.10 ± 0.64 mV
same,activity across the concentration range tested,KCNQ2; 0.1-100 µM,only weakly active
same,V0.5 Normalized tail current,KCNQ3*-P211A; 0.1 µM,-55.16 ± 1.00 mV
same,V0.5 Normalized tail current,KCNQ3*-P211A; 1 µM,-59.20 ± 1.17 mV
same,V0.5 Normalized tail current,KCNQ3*-P211A; 3 µM,-61.55 ± 1.44 mV
same,V0.5 Normalized tail current,KCNQ3*-P211A; 10 µM,-78.35 ± 1.93 mV
same,V0.5 Normalized tail current,KCNQ3*-P211A; 30 µM,-98.23 ± 4.44 mV
same,V0.5 Normalized tail current,KCNQ3*-P211A; 100 µM,-110.7 ± 3.83 mV
same,EC50,KCNQ3*-P211A; EC50 EM,3.21 ± 0.21 µM
same,EC50,KCNQ3*-P211A; EC50 V0.5 Activation,15.25 ± 0.07 µM
same,carnosic acid efficacy and potency compared with KCNQ3*,KCNQ3*-P211A; dose-response,very similarly
same,V0.5 Normalized tail current,KCNQ2/5; 0.1 µM,-40.58 ± 1.11 mV
same,V0.5 Normalized tail current,KCNQ2/5; 1 µM,-44.54 ± 0.73 mV
same,V0.5 Normalized tail current,KCNQ2/5; 3 µM,-47.07 ± 0.55 mV
same,V0.5 Normalized tail current,KCNQ2/5; 10 µM,-46.44 ± 0.68 mV
same,V0.5 Normalized tail current,KCNQ2/5; 30 µM,-45.89 ± 0.76 mV
same,V0.5 Normalized tail current,KCNQ2/5; 100 µM,-46.50 ± 0.97 mV
same,EC50,KCNQ2/5; EC50 EM,4.76 ± 0.34 µM
same,EC50,KCNQ2/5; EC50 V0.5 Activation,0.74 ± 0.12 µM
